Common to all, as to assay: relative viability (nuclei count vs DMSO), 5 days (fraction); higher = more cells survive
Compound in the assay “OSI-027 + Foretinib”: COc1cccc2cc(-c3nc([C@H]4CC[C@H](C(=O)O)CC4)n4ncnc(N)c34)[nH]c12 [OSI-027] + COc1cc2c(Oc3ccc(NC(=O)C4(C(=O)Nc5ccc(F)cc5)CC4)cc3F)ccnc2cc1OCCCN1CCOCC1 [Foretinib] (partner 0.25 µM)
In short, it runs like this: (§1)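 A single step with final 0.05% Triton X-100, 1% formaldehyde and 1 ug/ml Hoechst fixed the cells and stained nuclei 5 days after treatment. Lung cancer cell lines in 1536-well plates had been treated by pin tool the day after seeding with one drug alone or a fixed anchor-drug dose plus five library-drug doses (not always all listed) in √10 steps, and nuclei were counted on 4× images. Relative viability is the ratio of nuclei in treated wells to nuclei in vehicle wells, taken as the median of duplicate plates.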

Compound in the assay “OSI-027 + Phenformin”: COc1cccc2cc(-c3nc([C@H]4CC[C@H](C(=O)O)CC4)n4ncnc(N)c34)[nH]c12 [OSI-027] + N=C(N)NC(=N)NCCc1ccccc1 [Phenformin] (partner 250 µM)
Put shortly:
as §1

Compound in the assay “OSI-027 + Decitabine”: COc1cccc2cc(-c3nc([C@H]4CC[C@H](C(=O)O)CC4)n4ncnc(N)c34)[nH]c12 [OSI-027] + Nc1ncn([C@H]2C[C@H](O)[C@@H](CO)O2)c(=O)n1 [Decitabine] (partner 2 µM)
In short, it runs like this: as §1

Compound in the assay “OSI-027 + Olaparib”: COc1cccc2cc(-c3nc([C@H]4CC[C@H](C(=O)O)CC4)n4ncnc(N)c34)[nH]c12 [OSI-027] + O=C(c1cc(Cc2n[nH]c(=O)c3ccccc23)ccc1F)N1CCN(C(=O)C2CC2)CC1 [Olaparib] (partner 8 µM)
In short, it runs like this:
as §1

For NCI-H1395, the relative viability with OSI-027 + Foretinib (first compound 0.01 µM) stood at 0.965; with OSI-027 + Foretinib (first compound 0.03162 µM), 0.903; with OSI-027 + Foretinib (first compound 0.1 µM), 0.959; with OSI-027 + Foretinib (first compound 0.3162 µM), 0.847; in the assay with OSI-027 + Foretinib (first compound 1 µM) it was 0.637; with OSI-027 + Phenformin (first compound 0.01 µM), 0.446. The relative viability in the assay with OSI-027 + Phenformin (first compound 0.03162 µM) stood at 0.431; with OSI-027 + Phenformin (first compound 0.1 µM) it was 0.396; with OSI-027 + Phenformin (first compound 0.3162 µM), 0.401; in the assay with OSI-027 + Phenformin (first compound 1 µM), 0.369; in the assay with OSI-027 + Decitabine (first compound 0.01 µM), 0.696; with OSI-027 + Decitabine (first compound 0.03162 µM) it was 0.742. The relative viability with OSI-027 + Decitabine (first compound 0.1 µM) was 0.684; in the assay with OSI-027 + Decitabine (first compound 0.3162 µM), 0.645; in the assay with OSI-027 + Decitabine (first compound 1 µM) it was 0.532; with OSI-027 + Olaparib (first compound 0.01 µM), 0.525; with OSI-027 + Olaparib (first compound 0.03162 µM) it was 0.412; with OSI-027 + Olaparib (first compound 0.1 µM), 0.48. The relative viability with OSI-027 + Olaparib (first compound 0.3162 µM) was 0.376; with OSI-027 + Olaparib (first compound 1 µM), 0.362.

With NCI-H2023, the relative viability amounted to 0.964 with OSI-027 + Foretinib (first compound 0.01 µM); 0.925 with OSI-027 + Foretinib (first compound 0.03162 µM); 0.785 in the assay with OSI-027 + Foretinib (first compound 0.1 µM); 0.765 in the assay with OSI-027 + Foretinib (first compound 0.3162 µM); 0.461 with OSI-027 + Foretinib (first compound 1 µM); 0.452 with OSI-027 + Phenformin (first compound 0.01 µM). The relative viability came out at 0.367 with OSI-027 + Phenformin (first compound 0.03162 µM); 0.397 in the assay with OSI-027 + Phenformin (first compound 0.1 µM); 0.301 with OSI-027 + Phenformin (first compound 0.3162 µM); 0.213 with OSI-027 + Phenformin (first compound 1 µM); 0.202 in the assay with OSI-027 + Decitabine (first compound 0.01 µM); 0.213 in the assay with OSI-027 + Decitabine (first compound 0.03162 µM). The relative viability with OSI-027 + Decitabine (first compound 0.1 µM) turned out to be 0.2; with OSI-027 + Decitabine (first compound 0.3162 µM) it was 0.207; with OSI-027 + Decitabine (first compound 1 µM) it was 0.149; with OSI-027 + Olaparib (first compound 0.01 µM) it was 0.455; in the assay with OSI-027 + Olaparib (first compound 0.03162 µM) it was 0.446; with OSI-027 + Olaparib (first compound 0.1 µM), 0.455. Also, the relative viability amounted to 0.303 with OSI-027 + Olaparib (first compound 0.3162 µM) and 0.253 with OSI-027 + Olaparib (first compound 1 µM).

As to ChaGo-K-1, the relative viability in the assay with OSI-027 + Foretinib (first compound 0.01 µM) is 0.977; with OSI-027 + Foretinib (first compound 0.03162 µM), 0.854; with OSI-027 + Foretinib (first compound 0.1 µM), 0.907; with OSI-027 + Foretinib (first compound 0.3162 µM) it was 0.8; with OSI-027 + Foretinib (first compound 1 µM) it was 0.504; with OSI-027 + Phenformin (first compound 0.01 µM), 0.43. The relative viability with OSI-027 + Phenformin (first compound 0.03162 µM) is 0.499; in the assay with OSI-027 + Phenformin (first compound 0.1 µM), 0.436; with OSI-027 + Phenformin (first compound 0.3162 µM), 0.409; in the assay with OSI-027 + Phenformin (first compound 1 µM), 0.323; in the assay with OSI-027 + Decitabine (first compound 0.01 µM), 0.518; with OSI-027 + Decitabine (first compound 0.03162 µM) it was 0.526. The relative viability is 0.497 with OSI-027 + Decitabine (first compound 0.1 µM); 0.522 with OSI-027 + Decitabine (first compound 0.3162 µM); 0.45 in the assay with OSI-027 + Decitabine (first compound 1 µM); 0.429 with OSI-027 + Olaparib (first compound 0.01 µM); 0.423 in the assay with OSI-027 + Olaparib (first compound 0.03162 µM); 0.451 in the assay with OSI-027 + Olaparib (first compound 0.1 µM). In addition, the relative viability in the assay with OSI-027 + Olaparib (first compound 0.3162 µM) came to 0.415; with OSI-027 + Olaparib (first compound 1 µM), 0.317.

With NCI-H1944, the relative viability in the assay with OSI-027 + Foretinib (first compound 0.01 µM) came out at 0.835; in the assay with OSI-027 + Foretinib (first compound 0.03162 µM), 0.918; in the assay with OSI-027 + Foretinib (first compound 0.1 µM) it was 0.884; with OSI-027 + Foretinib (first compound 0.3162 µM), 0.73; in the assay with OSI-027 + Foretinib (first compound 1 µM), 0.394; in the assay with OSI-027 + Phenformin (first compound 0.01 µM) it was 0.2. For the same cell line, the relative viability turned out to be 0.222 with OSI-027 + Phenformin (first compound 0.03162 µM); 0.19 with OSI-027 + Phenformin (first compound 0.1 µM); 0.172 with OSI-027 + Phenformin (first compound 0.3162 µM); 0.137 with OSI-027 + Phenformin (first compound 1 µM); 0.427 with OSI-027 + Decitabine (first compound 0.01 µM); 0.46 with OSI-027 + Decitabine (first compound 0.03162 µM). Further, the relative viability with OSI-027 + Decitabine (first compound 0.1 µM) came to 0.405; with OSI-027 + Decitabine (first compound 0.3162 µM) it was 0.443; in the assay with OSI-027 + Decitabine (first compound 1 µM), 0.303; in the assay with OSI-027 + Olaparib (first compound 0.01 µM) it was 0.371; with OSI-027 + Olaparib (first compound 0.03162 µM) it was 0.373; in the assay with OSI-027 + Olaparib (first compound 0.1 µM), 0.422. Moreover, the figures for the relative viability in the assay with OSI-027 + Olaparib (first compound 0.3162 µM) and with OSI-027 + Olaparib (first compound 1 µM) were 0.355 and 0.265, respectively.

Regarding H3255, the relative viability in the assay with OSI-027 + Foretinib (first compound 0.01 µM) was found to be 0.772; with OSI-027 + Foretinib (first compound 0.03162 µM) it was 1.03; with OSI-027 + Foretinib (first compound 0.1 µM), 0.811; with OSI-027 + Foretinib (first compound 0.3162 µM), 0.865; with OSI-027 + Foretinib (first compound 1 µM) it was 0.481; with OSI-027 + Phenformin (first compound 0.01 µM), 0.308. For the same cell line, the relative viability was determined as 0.359 with OSI-027 + Phenformin (first compound 0.03162 µM); 0.31 in the assay with OSI-027 + Phenformin (first compound 0.1 µM); 0.349 in the assay with OSI-027 + Phenformin (first compound 0.3162 µM); 0.407 in the assay with OSI-027 + Phenformin (first compound 1 µM); 0.736 in the assay with OSI-027 + Decitabine (first compound 0.01 µM); 0.676 with OSI-027 + Decitabine (first compound 0.03162 µM). Moreover, the relative viability with OSI-027 + Decitabine (first compound 0.1 µM) was determined as 0.558; in the assay with OSI-027 + Decitabine (first compound 0.3162 µM) it was 0.513; with OSI-027 + Decitabine (first compound 1 µM) it was 0.42; in the assay with OSI-027 + Olaparib (first compound 0.01 µM), 0.595; with OSI-027 + Olaparib (first compound 0.03162 µM) it was 0.555; with OSI-027 + Olaparib (first compound 0.1 µM) it was 0.588. The relative viability in the assay with OSI-027 + Olaparib (first compound 0.3162 µM) was found to be 0.569; in the assay with OSI-027 + Olaparib (first compound 1 µM) it was 0.409.

With NCI-H2087, the relative viability turned out to be 1.11 with OSI-027 + Foretinib (first compound 0.01 µM); 1.1 with OSI-027 + Foretinib (first compound 0.03162 µM); 1.01 with OSI-027 + Foretinib (first compound 0.1 µM); 0.863 in the assay with OSI-027 + Foretinib (first compound 0.3162 µM); 0.39 with OSI-027 + Foretinib (first compound 1 µM); 0.495 with OSI-027 + Phenformin (first compound 0.01 µM). The relative viability was 0.492 with OSI-027 + Phenformin (first compound 0.03162 µM); 0.424 in the assay with OSI-027 + Phenformin (first compound 0.1 µM); 0.398 with OSI-027 + Phenformin (first compound 0.3162 µM); 0.271 with OSI-027 + Phenformin (first compound 1 µM); 0.268 with OSI-027 + Decitabine (first compound 0.01 µM); 0.228 with OSI-027 + Decitabine (first compound 0.03162 µM). Also, the relative viability with OSI-027 + Decitabine (first compound 0.1 µM) is 0.24; with OSI-027 + Decitabine (first compound 0.3162 µM), 0.214; with OSI-027 + Decitabine (first compound 1 µM), 0.16; with OSI-027 + Olaparib (first compound 0.01 µM), 0.757; with OSI-027 + Olaparib (first compound 0.03162 µM) it was 0.675; with OSI-027 + Olaparib (first compound 0.1 µM) it was 0.586. The relative viability in the assay with OSI-027 + Olaparib (first compound 0.3162 µM) amounted to 0.542; with OSI-027 + Olaparib (first compound 1 µM), 0.259.

As for RERF-LC-KJ, the relative viability was 0.869 in the assay with OSI-027 + Foretinib (first compound 0.01 µM); 0.885 with OSI-027 + Foretinib (first compound 0.03162 µM); 0.919 in the assay with OSI-027 + Foretinib (first compound 0.1 µM); 0.622 with OSI-027 + Foretinib (first compound 0.3162 µM); 0.445 with OSI-027 + Foretinib (first compound 1 µM); 0.458 with OSI-027 + Phenformin (first compound 0.01 µM). The relative viability came out at 0.423 with OSI-027 + Phenformin (first compound 0.03162 µM); 0.383 with OSI-027 + Phenformin (first compound 0.1 µM); 0.383 in the assay with OSI-027 + Phenformin (first compound 0.3162 µM); 0.361 with OSI-027 + Phenformin (first compound 1 µM); 0.617 with OSI-027 + Decitabine (first compound 0.01 µM); 0.664 with OSI-027 + Decitabine (first compound 0.03162 µM). The relative viability with OSI-027 + Decitabine (first compound 0.1 µM) is 0.668; with OSI-027 + Decitabine (first compound 0.3162 µM) it was 0.538; with OSI-027 + Decitabine (first compound 1 µM), 0.426; with OSI-027 + Olaparib (first compound 0.01 µM), 0.829; with OSI-027 + Olaparib (first compound 0.03162 µM), 0.866; with OSI-027 + Olaparib (first compound 0.1 µM), 0.82. In addition, the results for the relative viability with OSI-027 + Olaparib (first compound 0.3162 µM) and with OSI-027 + Olaparib (first compound 1 µM) were 0.798 and 0.496, respectively.

Values taken from the supplement of paper PMC10307832.
